Measurements reported in patent US20240307350A1, “5-METHOXY-N,N-DIMETHYLTRYPTAMINE (5-MEO-DMT) FOR TREATING DEPRESSION” (GH RESEARCH IRELAND LIMITED, priority 2019, published 2024).

Tests used:
healthy volunteers = assay: Clinical trial in healthy volunteers: intensity of the psychedelic effects (PPEQ); assay type: in vivo, human; settings: for PPEQ Intensity (0-100) / PPEQ Loss of Control (0-100) / PPEQ Profoundness (0-100) / PPEQ Total Score (0-100): group average
Method: A clinical trial was performed in which 5-MeO-DMT free base (purity not less than 99%) at different dose levels was administered via inhalation (as described in Example 1) in a single day to healthy volunteers who had prior experiences with the use of synthetic or naturally-occurring psychedelics. The trial was reviewed and approved by the relevant national competent authority and local medical ethics committee. The trial consisted of two parts: Part A, where single doses of 5-MeO-DMT dosage amounts of 2 mg, 6 mg, 12 mg and 18 mg were administered; and Part B, where an initial 5-MeO-DMT dosage amount of 6 mg was administered, and then, unless the participant had already experienced a peak psychedelic experience based on the PPEQ or the supervising physician had decided that further dose increases were inappropriate based on observed side effects, further subsequent dosage amounts of 12 mg and 18 mg were administered with about 3 hours in between each administration. Participants in Part A only received one dose and were not allowed to receive higher doses in later parts of Part A and were not allowed to participate in Part B. Participants were closely monitored for 3.5 hours after the last dose, with additional follow-up visits 1 day and 7 days after dosing. Various safety related measures (e.g., adverse event reporting, safety laboratory analyses, vital signs, ECG, CADSS, PVT, DSST, Prospective Memory Task (PMT)) as well as measures of the intensity of the psychedelic effects (MEQ30, ASC, PPEQ, subjective description of the psychedelic experience) were recorded. Pharmacokinetic analysis of 5-MeO-DMT and bufotenine plasma levels was performed at 1 hour and 3 hours after drug administration in Part A, and at 3 hours after drug administration in Part B.
18 participants were recruited into Part A of the study and 4 participants were recruited into Part B. 9 Participants were female and 13 participants were male. Median age was 29 years (range: 19 to 42 years). In Part A, 4 participants received 2 mg, 6 participants received 6 mg, 4 participants received 12 mg and 4 participants received 18 mg of 5-MeO-DMT. In Part B, 1 participant received 6 mg, 2 participants received 6 mg and then 12 mg and one participant received 6 mg, 12 mg and then 18 mg of 5-MeO-DMT.
The Peak Psychedelic Experience Questionnaire (PPEQ) has been developed by the inventor as an improved alternative to the oceanic boundlessness dimension of the ASC and the MEQ30 to allow a simpler and quicker assessment of the intensity of a psychedelic experience. The PPEQ is comprised of three questions, all to be scored from 0 to 100 by marking a Visual Analogue Scale between 0 and 100 mm: • 1. How intense was the experience? • 2. To what extent did you lose control? • 3. How profound (i.e., deep and significant) was the experience?
The PPEQ Total Score is the average of the scores of the three questions. A “peak psychedelic experience” is identified through achievement of a PPEQ Total Score of at least 75. A statistically significant correlation between the PPEQ Total Score and the oceanic boundlessness dimension of the ASC, respectively the MEQ30 Total Score, has been observed in the data set described in Example 3.

[1] = test system: patients with treatment-resistant major depressive disorder; assay: Clinical trial of inhaled 5-MeO-DMT in treatment-resistant major depressive disorder: safety and tolerability; assay type: in vivo, human; settings: for Reported adverse events: 12 mg inhaled
Method: A clinical trial was performed in which 5-MeO-DMT free base (purity not less than 99%) was administered to patients with treatment-resistant major depressive disorder (TRD). The objectives of the study were to assess the safety and tolerability, the dose-related psychedelic effects and the effects on various measures of depression of single-day dosing of 5-MeO-DMT. The trial was reviewed and approved by the relevant national competent authority and local medical ethics committee. Patients recruited into the trial had to meet the Diagnostic and Statistical Manual of Mental Disorders-Fifth Edition (DSM-5) diagnostic criteria for single-episode or recurrent major depressive disorder and had to be treatment-resistant, both aspects as evaluated by a psychiatrist or registered psychologist. Patients who were using any psychoactive medication or substance (such as anti-depressive medication) had to discontinue such medication or substance and had to observe a wash-out period before the 5-MeO-DMT administration. On the administration day, a single dose of 12 mg 5-MeO-DMT was administered to the patients via a single inhalation as described in Example 1A. Patients were closely monitored for 3.5 hours after administration, with additional follow-up visits 1 day and 7 days after dosing. Various safety related measures (e.g., adverse event reporting, safety laboratory analyses, vital signs, electrocardiogram (ECG), Clinician Administered Dissociative States Scale (CADSS), Psychomotor Vigilance Test (PVT), Digit Symbol Substitution Test (DSST)), measures of the intensity of the psychedelic effects (e.g., Peak Psychedelic Experience Questionnaire (PPEQ), Altered States of Consciousness (ASC) Questionnaire, Mystical Experience Questionnaire (MEQ30), subjective description of the psychedelic experience), measures of depression severity (Montgomery-Åsberg Depression Rating Scale (MADRS), Patient's Global Impression of Severity scale (PGI-S), Patient's Global Impression of Improvement scale (PGI-I)), and additional psychological measures (e.g., Columbia-Suicide Severity Rating Scale (C-SSRS), Brief Psychiatric Rating Scale (BPRS)) were recorded at different time points. Psychological support via a psychologist and/or psychiatrist was available to the patients throughout the study, but no specific psychotherapy was applied, and no additional psychoactive medication was provided.
Two patients with major depressive disorder diagnosed by a psychiatrist according to DSM-5 diagnostic criteria were recruited into the study (Example 2, Table 1). The patients were considered treatment-resistant because they had not shown adequate improvement to at least two adequate courses of pharmacological therapy in the current episode of depression.

[2] = Part B max. dose (n = 4), highest dose for each participant (6, 12 or 18 mg)

SMILES: COc1ccc2[nH]cc(CCN(C)C)c2c1 [5-MeO-DMT, 5-methoxy-N,N-dimethyltryptamine]
- PPE achieved (fraction of participants who achieved a PPEQ Total Score of at least 75) (healthy volunteers; Part A 2 mg (n = 4)): 0/4
- PPEQ Intensity (0-100) (healthy volunteers; Part A 2 mg (n = 4)): 16
- PPEQ Loss of Control (0-100) (healthy volunteers; Part A 2 mg (n = 4)): 4
- PPEQ Profoundness (0-100) (healthy volunteers; Part A 2 mg (n = 4)): 7
- PPEQ Total Score (0-100) (healthy volunteers; Part A 2 mg (n = 4)): 9.0
- PPE achieved (fraction of participants who achieved a PPEQ Total Score of at least 75) (healthy volunteers; Part A 6 mg (n = 6)): 1/6
- PPEQ Intensity (0-100) (healthy volunteers; Part A 6 mg (n = 6)): 53
- PPEQ Loss of Control (0-100) (healthy volunteers; Part A 6 mg (n = 6)): 37
- PPEQ Profoundness (0-100) (healthy volunteers; Part A 6 mg (n = 6)): 42
- PPEQ Total Score (0-100) (healthy volunteers; Part A 6 mg (n = 6)): 43.8
- PPE achieved (fraction of participants who achieved a PPEQ Total Score of at least 75) (healthy volunteers; Part A 12 mg (n = 4)): 2/4
- PPEQ Intensity (0-100) (healthy volunteers; Part A 12 mg (n = 4)): 78
- PPEQ Loss of Control (0-100) (healthy volunteers; Part A 12 mg (n = 4)): 69
- PPEQ Profoundness (0-100) (healthy volunteers; Part A 12 mg (n = 4)): 51
- PPEQ Total Score (0-100) (healthy volunteers; Part A 12 mg (n = 4)): 65.5
- PPE achieved (fraction of participants who achieved a PPEQ Total Score of at least 75) (healthy volunteers; Part A 18 mg (n = 4)): 1/4
- PPEQ Intensity (0-100) (healthy volunteers; Part A 18 mg (n = 4)): 62
- PPEQ Loss of Control (0-100) (healthy volunteers; Part A 18 mg (n = 4)): 80
- PPEQ Profoundness (0-100) (healthy volunteers; Part A 18 mg (n = 4)): 36
- PPEQ Total Score (0-100) (healthy volunteers; Part A 18 mg (n = 4)): 59.2
- PPE achieved (fraction of participants who achieved a PPEQ Total Score of at least 75) (healthy volunteers; [2]): 4/4
- PPEQ Intensity (0-100) (healthy volunteers; [2]): 97
- PPEQ Loss of Control (0-100) (healthy volunteers; [2]): 94
- PPEQ Profoundness (0-100) (healthy volunteers; [2]): 78
- PPEQ Total Score (0-100) (healthy volunteers; [2]): 89.3
- first psychedelic symptoms after the inhalation (onset) (healthy volunteers; all participants, 2 mg to 18 mg via inhalation): within a few seconds
- ECG, safety laboratory analyses, CADSS and cognitive tests (PVT, DSST) ([1]; ECG at 3 hours, laboratory at 3 hours and 7 days, CADSS at 3 hours, 1 day and 7 days, PVT, DSST at 1 day and 7 days): unremarkable
- Reported adverse events ([1]; Patient 1, Administration day, mild, resolved spontaneously): Dizziness
- Reported adverse events ([1]; Patient 1, Day 1, mild, resolved spontaneously): Headache, Flashback
- Reported adverse events ([1]; Patient 1, Day 7, mild, resolved spontaneously): Headache
- Reported adverse events ([1]; Patient 2, Administration day): None reported
- Reported adverse events ([1]; Patient 2, Day 1, mild, resolved spontaneously): Headache
- Reported adverse events ([1]; Patient 2, Day 7): None reported
- changes in vital parameters ([1]; shortly after administration of 12 mg, both patients): temporary, not clinically relevant increase in heart rate and blood pressure
- tolerability of the inhalation procedure ([1]; single dose of 12 mg via inhalation, both patients): well tolerated with no inhalation-related adverse events
